Reference: ChEMBL document CHEMBL5576134, “Targeting Pancreatic Cancer with Novel Nicolaioidesin C Derivatives: Molecular Mechanism, In Vitro, and In Vivo Evaluations” (J Med Chem, 2024)

How the values were obtained:
MIA PaCa-2 [1] = experiment: Preferential cytotoxicity against human MIA PaCa-2 cells in nutrient-deprived medium measured after 24 hrs by WST-8 cell counting analysis; format: functional
MIA PaCa-2 [2] = experiment: Preferential cytotoxicity against human MIA PaCa-2 cells in DMEM measured after 24 hrs by WST-8 cell counting analysis; format: functional, cell-based; settings: MIA PaCa-2, 24 h
[3] = Selectivity index, ratio of IC50 for preferential cytotoxicity against human MIA PaCa-2 cells in DMEM to PC50 for preferential cytotoxicity against human MIA PaCa-2 cells in nutrient-deprived medium; format: functional
PANC-1 [4] = experiment: Preferential cytotoxicity against human PANC-1 cells in nutrient-deprived medium measured after 24 hrs by WST-8 cell counting analysis; format: functional
PANC-1 [5] = experiment: Preferential cytotoxicity against human PANC-1 cells in DMEM measured after 24 hrs by WST-8 cell counting analysis; format: functional, cell-based; settings: PANC-1, 24 h
[6] = Selectivity index, ratio of IC50 for preferential cytotoxicity against human PANC-1 cells in DMEM to PC50 for preferential cytotoxicity against human PANC-1 cells in nutrient-deprived medium; format: functional

Structure (SMILES)	PC50 (MIA PaCa-2 [1])	IC50 (MIA PaCa-2 [2])	Selectivity Index [3]	PC50 (PANC-1 [4])	IC50 (PANC-1 [5])	Selectivity Index [6]
CC(C)=CCCC1=CC[C@H](C(=O)c2c(O)cccc2O)[C@@H](c2ccc(F)cc2F)C1 (relative stereo)	0.34 µM	11.1 µM	32.6	0.27 µM	7.18 µM	26.1
CC(C)=CCCC1=CC[C@H](C(=O)c2c(O)cccc2O)[C@@H](c2ccc(F)cc2)C1 (relative stereo)	0.89 µM	34.4 µM	38.6	0.37 µM	> 100 µM	–
COc1cc(O)c(C(=O)[C@H]2CC=C(CCC=C(C)C)C[C@@H]2c2cc(F)cc(F)c2)c(O)c1	0.79 µM	17.9 µM	22.6	0.73 µM	13.5 µM	18.6
CC(C)=CCCC1=CC[C@H](C(=O)c2c(O)cccc2O)[C@@H](c2ccccc2)C1 (relative stereo)	1.79 µM	58.2 µM	32.5	0.4 µM	47.2 µM	117
COc1cc(O)c(C(=O)[C@H]2CC=C(CCC=C(C)C)C[C@@H]2c2ccccc2F)c(O)c1 (relative stereo)	0.85 µM	33.7 µM	39.6	0.72 µM	28.5 µM	39.3
COc1cc(O)c(C(=O)[C@H]2CC=C(CCC=C(C)C)C[C@@H]2c2cccc(F)c2)c(O)c1 (relative stereo)	1.21 µM	39.9 µM	32.9	1.16 µM	29.6 µM	25.6
COc1cc(O)c(C(=O)[C@H]2CC=C(CCC=C(C)C)C[C@@H]2c2ccc(C)cc2)c(O)c1 (relative stereo)	3.65 µM	93.3 µM	25.5	0.56 µM	> 100 µM	–
COc1ccc(C(=O)[C@H]2CC=C(CCC=C(C)C)C[C@@H]2c2ccccc2)c(O)c1 (relative stereo)	59.3 µM	> 100 µM	–	7.32 µM	24.2 µM	3.3
CC(C)=CCCC1=CC[C@H](C(=O)c2c(O)cccc2O)[C@@H](c2ccc(Cl)cc2Cl)C1 (relative stereo)	0.78 µM	22.2 µM	28.6	0.43 µM	10 µM	23.5
COc1ccc([C@H]2CC(CCC=C(C)C)=CC[C@@H]2C(=O)c2c(O)cccc2O)cc1 (relative stereo)	4.73 µM	> 100 µM	–	1.08 µM	56.7 µM	52.8
COc1cc(O)c(C(=O)[C@H]2CC=C(CCC=C(C)C)C[C@@H]2c2ccc(F)cc2F)c(O)c1 (relative stereo)	0.63 µM	20.2 µM	32	0.97 µM	21 µM	21.6
CC(C)=CCCC1=CC[C@H](C(=O)c2c(O)cccc2O)[C@@H](c2ccc(Cl)cc2)C1 (relative stereo)	1.3 µM	32.6 µM	25	0.68 µM	86 µM	126.8
CC(C)=CCCC1=CC[C@H](C(=O)c2c(O)cccc2O)[C@@H](c2cccc(Cl)c2)C1 (relative stereo)	1.09 µM	29.1 µM	26.8	0.85 µM	14.8 µM	17.4
CC(C)=CCCC1=CC[C@H](C(=O)c2c(O)cccc2O)[C@@H](c2ccccc2Cl)C1 (relative stereo)	1.08 µM	29 µM	26.7	0.69 µM	15.4 µM	22.2
COc1cccc(OC)c1C(=O)[C@H]1CC=C(CCC=C(C)C)C[C@@H]1c1ccccc1 (relative stereo)	13.6 µM	> 100 µM	–	1.66 µM	40 µM	24.1
COc1cccc(O)c1C(=O)[C@H]1CC=C(CCC=C(C)C)C[C@@H]1c1ccccc1	31.8 µM	> 100 µM	–	3.3 µM	33.9 µM	10.3
